Laboratory results as given in ChEMBL document CHEMBL4411307, “N,N'-diaryl-bishydrazones in a biphenyl platform: Broad spectrum antifungal agents” (Eur J Med Chem, 2019).
≈ marks a conversion by molar mass, not a printed value. Calls of active or inactive are those of the source. The calls are words filed in the database; no cut-off is given here.

Legend:
[1] = Selectivity index, ratio of compound concentration showing <20 to <30% hemolysis in mouse RBC to MIC for fluconazole/ITC-resistant Candida albicans ATCC MYA-1237; format: toxicity; settings: mouse red blood cells (RBC), read-out: Selectivity Index
Candida albicans [2] = test: Antifungal activity against fluconazole/ITC-resistant Candida albicans ATCC 90819 measured after 48 hrs by CLSI M27-A3 protocol based method; format: functional; settings: ATCC 90819, 48 h
[3] = Selectivity index, ratio of CC50 for human A549 cells to MIC for Candida parapsilosis ATCC 22019; format: toxicity; settings: read-out: Selectivity Index
[4] = Selectivity index, ratio of CC50 for human A549 cells to MIC for Candida glabrata ATCC 2001; format: toxicity; settings: read-out: Selectivity Index
[5] = Selectivity index, ratio of compound concentration showing <20 to <30% hemolysis in mouse RBC to MIC for Aspergillus nidulans ATCC 38163; format: toxicity; settings: mouse red blood cells (RBC), read-out: Selectivity Index
[6] = Hemolytic activity in mouse RBC at […] ug/ml after 1 hr relative to control; format: ADME, cell-based, Erythrocyte; settings: red blood cells (erythrocytes), read-out: Activity
[7] = Selectivity index, ratio of compound concentration showing <20 to <30% hemolysis in mouse RBC to MIC for Candida krusei ATCC 6258; format: toxicity; settings: mouse red blood cells (RBC), read-out: Selectivity Index
[8] = Selectivity index, ratio of compound concentration showing <20 to <30% hemolysis in mouse RBC to MIC for Candida glabrata ATCC 2001; format: toxicity; settings: mouse red blood cells (RBC), read-out: Selectivity Index
[9] = Selectivity index, ratio of compound concentration showing <20 to <30% hemolysis in mouse RBC to MIC for fluconazole/ITC-resistant Candida albicans ATCC 10231; format: toxicity; settings: red blood cells (erythrocytes), read-out: Selectivity Index
[10] = Selectivity index, ratio of CC50 for human A549 cells to MIC for fluconazole/ITC-susceptible Candida albicans ATCC MYA-2310; format: toxicity; settings: read-out: Selectivity Index
Candida albicans [11] = test: Antifungal activity against fluconazole/ITC-susceptible Candida albicans ATCC MYA-2876 measured after 48 hrs by CLSI M27-A3 protocol based method; format: functional; settings: ATCC MYA-2876, 48 h
[12] = Hemolytic activity in mouse RBC at 7.8 ug/ml after 1 hr relative to control; format: ADME, cell-based, Erythrocyte; settings: red blood cells (erythrocytes), read-out: Activity
Aspergillus terreus = test: Antifungal activity against Aspergillus terreus ATCC MYA-3633 measured after 48 hrs by CLSI M38-A2 protocol based method; format: functional; settings: ATCC MYA-3633, 48 h
Pichia kudriavzevii = test: Antifungal activity against Candida krusei ATCC 6258 measured after 48 hrs by CLSI M27-A3 protocol based method; format: functional; settings: ATCC 6258, 48 h
A549 = test: Cytotoxicity against human A549 cells after 24 hrs by resazurin based assay; format: cell-based; settings: a549, 24 h
[13] = Hemolytic activity in mouse RBC at 1.95 ug/ml after 1 hr relative to control; format: ADME, cell-based, Erythrocyte; settings: red blood cells (erythrocytes), read-out: Activity
Candida albicans [14] = test: Antifungal activity against fluconazole/ITC-resistant Candida albicans ATCC MYA-1003 measured after 48 hrs by CLSI M27-A3 protocol based method; format: functional; settings: ATCC MYA-1003, 48 h
Candida albicans [15] = test: Antifungal activity against fluconazole/ITC-resistant Candida albicans ATCC 64124 measured after 48 hrs by CLSI M27-A3 protocol based method; format: functional; settings: ATCC 64124, 48 h
Aspergillus flavus = test: Antifungal activity against Aspergillus flavus ATCC MYA-3631 measured after 48 hrs by CLSI M38-A2 protocol based method; format: functional; settings: ATCC MYA-3631, 48 h
Candida parapsilosis = test: Antifungal activity against Candida parapsilosis ATCC 22019 measured after 48 hrs by CLSI M27-A3 protocol based method; format: functional; settings: Lodderomyces parapsilosis, ATCC 22019, 48 h
[16] = Selectivity index, ratio of CC50 for human A549 cells to MIC for fluconazole/ITC-resistant Candida albicans ATCC 10231; format: toxicity; settings: read-out: Selectivity Index
Aspergillus nidulans = test: Antifungal activity against Aspergillus nidulans ATCC 38163 measured after 48 hrs by CLSI M38-A2 protocol based method; format: functional; settings: ATCC 38163, 48 h
[17] = Selectivity index, ratio of compound concentration showing <20 to <30% hemolysis in mouse RBC to MIC for fluconazole/ITC-resistant Candida albicans ATCC 90819; format: toxicity; settings: red blood cells (erythrocytes), read-out: Selectivity Index
[18] = Selectivity index, ratio of compound concentration showing <20 to <30% hemolysis in mouse RBC to MIC for fluconazole/ITC-susceptible Candida albicans ATCC MYA-2876; format: toxicity; settings: red blood cells (erythrocytes), read-out: Selectivity Index
Nakaseomyces glabratus = test: Antifungal activity against Candida glabrata ATCC 2001 measured after 48 hrs by CLSI M27-A3 protocol based method; format: functional; settings: CBS 138, 48 h
[19] = Selectivity index, ratio of CC50 for human A549 cells to MIC for Candida krusei ATCC 6258; format: toxicity; settings: read-out: Selectivity Index
[20] = Selectivity index, ratio of compound concentration showing <20 to <30% hemolysis in mouse RBC to MIC for fluconazole/ITC-susceptible Candida albicans ATCC MYA-2310; format: toxicity; settings: mouse red blood cells (RBC), read-out: Selectivity Index
[21] = Selectivity index, ratio of CC50 for human A549 cells to MIC for fluconazole/ITC-resistant Candida albicans ATCC 90819; format: toxicity; settings: read-out: Selectivity Index
[22] = Hemolytic activity in mouse RBC at […] after 1 hr relative to control; format: ADME, cell-based, Erythrocyte; settings: red blood cells (erythrocytes), read-out: Activity; further: tested at 0.48 µg/mL
Candida albicans [23] = test: Antifungal activity against fluconazole/ITC-resistant Candida albicans ATCC 10231 measured after 48 hrs by CLSI M27-A3 protocol based method; format: functional; settings: ATCC 10231, 48 h
[24] = Selectivity index, ratio of compound concentration showing <20 to <30% hemolysis in mouse RBC to MIC for Aspergillus terreus ATCC MYA-3633; format: toxicity; settings: mouse red blood cells (RBC), read-out: Selectivity Index
[25] = Selectivity index, ratio of CC50 for human A549 cells to MIC for fluconazole/ITC-resistant Candida albicans ATCC 64124; format: toxicity; settings: read-out: Selectivity Index
[26] = Selectivity index, ratio of compound concentration showing <20 to <30% hemolysis in mouse RBC to MIC for Aspergillus flavus ATCC MYA-3631; format: toxicity; settings: mouse red blood cells (RBC), read-out: Selectivity Index
Enterococcus = test: Antibacterial activity against vancomycin-resistant Enterococcus; format: functional, organism-based
Staphylococcus aureus = test: Antibacterial activity against methicillin-resistant Staphylococcus aureus; format: functional, organism-based
[27] = Selectivity index, ratio of CC50 for human A549 cells to MIC for fluconazole/ITC-susceptible Candida albicans ATCC MYA-2876; format: toxicity; settings: read-out: Selectivity Index
[28] = Selectivity index, ratio of compound concentration showing <20 to <30% hemolysis in mouse RBC to MIC for Candida parapsilosis ATCC 22019; format: toxicity; settings: mouse red blood cells (RBC), read-out: Selectivity Index
Candida albicans [29] = test: Antifungal activity against fluconazole/ITC-resistant Candida albicans ATCC MYA-1237 measured after 48 hrs by CLSI M27-A3 protocol based method; format: functional; settings: ATCC MYA-1237, 48 h
[30] = Selectivity index, ratio of CC50 for human A549 cells to MIC for Aspergillus nidulans ATCC 38163; format: toxicity; settings: read-out: Selectivity Index
[31] = Hemolytic activity in mouse RBC at 31.3 ug/ml after 1 hr relative to control; format: ADME, cell-based, Erythrocyte; settings: red blood cells (erythrocytes), read-out: Activity
[32] = Selectivity index, ratio of CC50 for human A549 cells to MIC for Aspergillus terreus ATCC MYA-3633; format: toxicity; settings: read-out: Selectivity Index
BEAS-2B = test: Cytotoxicity against human BEAS2B cells after 24 hrs by resazurin based assay; format: cell-based
Listeria monocytogenes = test: Antibacterial activity against Listeria monocytogenes; format: functional, organism-based
[33] = Selectivity index, ratio of CC50 for human A549 cells to MIC for fluconazole/ITC-resistant Candida albicans ATCC MYA-1003; format: toxicity; settings: read-out: Selectivity Index
[34] = Selectivity index, ratio of compound concentration showing <20 to <30% hemolysis in mouse RBC to MIC for fluconazole/ITC-resistant Candida albicans ATCC MYA-1003; format: toxicity; settings: mouse red blood cells (RBC), read-out: Selectivity Index
[35] = Hemolytic activity in mouse RBC at 62.5 ug/ml after 1 hr relative to control; format: ADME, cell-based, Erythrocyte; settings: red blood cells (erythrocytes), read-out: Activity
[36] = Selectivity index, ratio of CC50 for human A549 cells to MIC for fluconazole/ITC-resistant Candida albicans ATCC MYA-1237; format: toxicity; settings: read-out: Selectivity Index
[37] = Selectivity index, ratio of compound concentration showing <20 to <30% hemolysis in mouse RBC to MIC for fluconazole/ITC-resistant Candida albicans ATCC 64124; format: toxicity; settings: red blood cells (erythrocytes), read-out: Selectivity Index
Candida albicans [38] = test: Antifungal activity against fluconazole/ITC-susceptible Candida albicans ATCC MYA-2310 measured after 48 hrs by CLSI M27-A3 protocol based method; format: functional; settings: ATCC MYA-2310, 48 h
[39] = Hemolytic activity in mouse RBC at 3.9 ug/ml after 1 hr relative to control; format: ADME, cell-based, Erythrocyte; settings: red blood cells (erythrocytes), read-out: Activity

## Fc1ccc(N/N=C/c2ccc(-c3ccc(/C=N/Nc4ccc(F)cc4)cc3)cc2)cc1
[1]
  selectivity ratio: 1 to 32
Candida albicans [2]
  MIC: 31.3 µg/mL (≈ 73.4 µM)
[3]
  selectivity ratio: 0.6
[4]
  selectivity ratio: 1.1
[5]
  selectivity ratio: 1 to 32
[6]; at 15.6 µg/mL
  hemolysis at 1 h, 15.6 ug/ml: 9%
[6]
  hemolysis at 1 h, 0.975 ug/ml: 0%
[7]
  selectivity ratio: 1 to 32
[8]
  selectivity ratio: 1 to 32
[9]
  selectivity ratio: 1 to 32
[10]
  selectivity ratio: 1.1
Candida albicans [11]
  MIC: 7.8 µg/mL (≈ 18.3 µM)
[12]
  hemolysis at 1 h, 7.8 ug/ml: 3.2%
Aspergillus terreus
  MIC: > 31.3 µg/mL
Pichia kudriavzevii
  MIC: 1.95 µg/mL (≈ 4.57 µM)
A549
  CC50: 17.7 µg/mL (≈ 41.5 µM)
[13]
  hemolysis at 1 h, 1.95 ug/ml: 1.1%
Candida albicans [14]
  MIC: 7.8 µg/mL (≈ 18.3 µM)
Candida albicans [15]
  MIC: 15.6 µg/mL (≈ 36.6 µM)
Aspergillus flavus
  MIC: 7.8 µg/mL (≈ 18.3 µM)
Candida parapsilosis
  MIC: 31.3 µg/mL (≈ 73.4 µM)
[16]
  selectivity ratio: 2.3
Aspergillus nidulans
  MIC: 7.8 µg/mL (≈ 18.3 µM)
[17]
  selectivity ratio: 1 to 32
[18]
  selectivity ratio: 1 to 32
Nakaseomyces glabratus
  MIC: 15.6 µg/mL (≈ 36.6 µM)
[19]
  selectivity ratio: 9.1
[20]
  selectivity ratio: 1 to 32
[21]
  selectivity ratio: 0.6
[22]
  hemolysis at 1 h, […]: 0%
Candida albicans [23]
  MIC: 7.8 µg/mL (≈ 18.3 µM)
[24]
  selectivity ratio: 1 to 32
[25]
  selectivity ratio: 1.1
[26]
  selectivity ratio: 1 to 32
Enterococcus
  Activity: inactive
Staphylococcus aureus
  Activity: inactive
[27]
  selectivity ratio: 2.3
[28]
  selectivity ratio: 1 to 32
Candida albicans [29]
  MIC: 7.8 µg/mL (≈ 18.3 µM)
[30]
  selectivity ratio: 2.3
[31]
  hemolysis at 1 h, 31.3 ug/ml: 9.6%
[32]
  selectivity ratio: 0.6
BEAS-2B
  CC50: 8.5 µg/mL (≈ 19.9 µM)
Listeria monocytogenes
  Activity: inactive
[33]
  selectivity ratio: 2.3
[34]
  selectivity ratio: 1 to 32
[35]
  hemolysis at 1 h, 62.5 ug/ml: 28.3%
[36]
  selectivity ratio: 2.3
[37]
  selectivity ratio: 1 to 32
Candida albicans [38]
  MIC: 15.6 µg/mL (≈ 36.6 µM)
[39]
  hemolysis at 1 h, 3.9 ug/ml: 0.7%
